A word on the IC50: it is the midpoint of a concentration-inhibition curve.

The subject of this assay is HIV. As to the kind of experiment: MT4 Assay (anti-HIV activity). To be noted: Human immunodeficiency virus 1, 96 h, read-out: HIV MT4 Assay IC50, HTLV-1 transformed cell line MT-4, cell titer glo, 10 point dose response curve. Type of assay: cell-based. How it is done:
Antiviral HIV activity and cytotoxicity values for compounds of the invention from Table 1 were measured in parallel in the HTLV-1 transformed cell line MT-4 based on the method previously described (Hazen et al., 2007, In vitro antiviral activity of the novel, tyrosyl-based human immunodeficiency virus (HIV) type 1 protease inhibitor brecanavir (GW640385) in combination with other antiretrovirals and against a panel of protease inhibitor-resistant HIV (Hazen et al., “In vitro antiviral activity of the novel, tyrosyl-based human immunodeficiency virus (HIV) type 1 protease inhibitor brecanavir (GW640385) in combination with other antiretrovirals and against a panel of protease inhibitor-resistant HIV”, Antimicrob. Agents Chemother. 2007, 51: 3147-3154; and Pauwels et al., “Sensitive and rapid assay on MT-4 cells for the detection of antiviral compounds against the AIDS virus”, J. of Virological Methods 1987, 16: 171-185).
Luciferase activity was measured 96 hours later by adding a cell titer glo (Promega, Madison, Wis.). Percent inhibition of cell protection data was plotted relative to no compound control. Under the same condition, cytotoxicity of the compounds was determined using cell titer glo (Promega, Madison, Wis.). IC50s were determined from a 10 point dose response curve using 3-4-fold serial dilution for each compound, which spans a concentration range >1000 fold.
Regarding `Cc1c(-c2c([C@H](OC(C)(C)C)C(=O)O)n(C)c(=O)c3cc(OCc4ccc(Cl)s4)ccc23)cc(F)c2c1CCCO2` [Example 110, (2S)-2-(tert-butoxy)-2-{7-[(5-chlorothiophen-2-yl)methoxy]-4-(8-fluoro-5-methyl-3,4-dihydro-2H-1-benzopyran-6-yl)-2-methyl-1-oxo-1,2-dihydroisoquinolin-3-yl}acetic acid], the IC50 worked out at 40 nM.
On to `CCCC(C(=O)O)c1c(-c2ccc(C)cc2C)c2ccccc2c(=O)n1C` (centres unmarked) [Example 216, 2-[4-(2,4-dimethylphenyl)-2-methyl-1-oxo-1,2-dihydro-3-isoquinolinyl]pentanoic acid], for which the IC50 stood at 36600 nM.
Then `Cc1c(-c2c(C(OC(C)(C)C)C(=O)O)n(C)c(=O)c3cc(OCCN4CCOCC4)ccc23)ccc2c1CCCO2` (centres unmarked) [Example 119, 2-(tert-butoxy)-2-[2-methyl-4-(5-methyl-3,4-dihydro-2H-1-benzopyran-6-yl)-7-[2-(morpholin-4-yl)ethoxy]-1-oxo-1,2-dihydroisoquinolin-3-yl]acetic acid], with 2130 nM; and `Cc1cccc(-c2ccc3c(-c4cc(F)c5c(c4C)CCCO5)c([C@H](OC(C)(C)C)C(=O)O)n(C)c(=O)c3c2)n1` (atropisomer, axis not shown; (M)) [Example 173, (2S)(M)-[(1,1-dimethylethyl)oxy][4-(8-fluoro-5-methyl-3,4-dihydro-2H-chromen-6-yl)-2-methyl-7-(6-methyl-2-pyridinyl)-1-oxo-1,2-dihydro-3-isoquinolinyl]ethanoic acid], with 120 nM.
Take `Cc1c(-c2c([C@H](OC(C)(C)C)C(=O)O)n(C)c(=O)c3cc(-c4ccnn4C)ccc23)cc(F)c2c1CCCO2` (atropisomer, axis not shown; (M)) [Example 195, (2S)(M)-[(1,1-dimethylethyl)oxy][4-(8-fluoro-5-methyl-3,4-dihydro-2H-chromen-6-yl)-2-methyl-7-(1-methyl-1H-pyrazol-5-yl)-1-oxo-1,2-dihydro-3-isoquinolinyl]ethanoic acid]: the IC50 came out at 140 nM.
Then `Cc1c(-c2c(C(OC(C)(C)C)C(=O)O)n(C)c(=O)c3cc(OCc4ccc(F)cc4)ccc23)ccc2c1CCCO2` (centres unmarked) [Example 93, 2-(tert-butoxy)-2-{7-[(4-fluorophenyl)methoxy]-2-methyl-4-(5-methyl-3,4-dihydro-2H-1-benzopyran-6-yl)-1-oxo-1,2-dihydroisoquinolin-3-yl}acetic acid], with 80 nM; and `Cc1c(-c2c([C@H](OC(C)(C)C)C(=O)NS(C)(=O)=O)n(C)c(=O)c3ccccc23)cc(F)c2c1CCCO2` (atropisomer, axis not shown; (M)) [Example 215, (2S)(M)-2-[(1,1-dimethylethyl)oxy]-2-[4-(8-fluoro-5-methyl-3,4-dihydro-2H-chromen-6-yl)-2-methyl-1-oxo-1,2-dihydro-3-isoquinolinyl]-N-(methylsulfonyl)ethanamide], with 11100 nM; and `CCCOc1ccc(-c2c(C(OC(C)(C)C)C(=O)O)n(C)c(=O)c3ccccc23)cc1` (centres unmarked) [Example 44, 2-(tert-butoxy)-2-[2-methyl-1-oxo-4-(4-propoxyphenyl)-1,2-dihydroisoquinolin-3-yl]acetic acid], with 38900 nM.
`CCOC(C(=O)O)c1c(-c2ccc(C)cc2C)c2ccccc2c(=O)n1C` (centres unmarked) [Example 218, [4-(2,4-dimethylphenyl)-2-methyl-1-oxo-1,2-dihydro-3-isoquinolinyl](ethyloxy)acetic acid]: the IC50 is 33200 nM.
Then `COc1ccc(Cc2ccc3c(-c4ccc(C)c(C)c4)c(C(OC(C)(C)C)C(=O)O)n(C)c(=O)c3c2)cc1` (centres unmarked) [Example 171, [(1,1-dimethylethyl)oxy](4-(3,4-dimethylphenyl)-2-methyl-7-{[4-(methyloxy)phenyl]methyl}-1-oxo-1,2-dihydro-3-isoquinolinyl)acetic acid], with 1300 nM.
Turning to `Cn1c(C(OC(C)(C)C)C(=O)O)c(-c2ccc3ncsc3c2)c2ccccc2c1=O` (centres unmarked) [Example 153, 2-(4-(benzo[d]thiazol-6-yl)-2-methyl-1-oxo-1,2-dihydroisoquinolin-3-yl)-2-(tert-butoxy)acetic acid], the IC50 is 3880 nM.
Then `COc1cc2c(=O)n(C)c(C(OC(C)(C)C)C(=O)O)c(-c3ccc4c(c3C)CCCO4)c2cc1C` (centres unmarked) [Example 120, 2-(tert-butoxy)-2-[7-methoxy-2,6-dimethyl-4-(5-methyl-3,4-dihydro-2H-1-benzopyran-6-yl)-1-oxo-1,2-dihydroisoquinolin-3-yl]acetic acid], with 230 nM; and `Cn1c(C(OC(C)(C)C)C(=O)O)c(-c2ccc(F)c(F)c2)c2ccccc2c1=O` (centres unmarked) [Example 38, 2-(tert-butoxy)-2-[4-(3,4-difluorophenyl)-2-methyl-1-oxo-1,2-dihydroisoquinolin-3-yl]acetic acid], with 2410 nM.
In the case of `Cc1c(-c2c([C@H](OC(C)(C)C)C(=O)O)n(C)c(=O)c3cc(OCc4ccc(Cl)s4)ccc23)ccc2c1CCCO2` [Example 112, (2S)-2-(tert-butoxy)-2-{7-[(5-chlorothiophen-2-yl)methoxy]-2-methyl-4-(5-methyl-3,4-dihydro-2H-1-benzopyran-6-yl)-1-oxo-1,2-dihydroisoquinolin-3-yl}acetic acid], the IC50 was 50 nM.
Turning to `Cc1ccc2c(-c3ccc4c(c3C)CCCO4)c([C@H](OC(C)(C)C)C(=O)O)n(C)c(=O)c2c1` [Example 115, (2S)-2-(tert-butoxy)-2-[2,7-dimethyl-4-(5-methyl-3,4-dihydro-2H-1-benzopyran-6-yl)-1-oxo-1,2-dihydroisoquinolin-3-yl]acetic acid], the IC50 stood at 20 nM.
Consider `Cc1c(-c2c(C(OC(C)(C)C)C(=O)O)n(C)c(=O)c3cc(OCc4ccc(OC(F)(F)F)cc4)ccc23)ccc2c1CCCO2` (centres unmarked) [Example 146, 2-(tert-butoxy)-2-[2-methyl-4-(5-methyl-3,4-dihydro-2H-1-benzopyran-6-yl)-1-oxo-7-{[4-(trifluoromethoxy)phenyl]-methoxy}-1,2-dihydroisoquinolin-3-yl]acetic acid], for which the IC50 was determined as 260 nM.
Then `Cc1ccc(-c2c(C(OC(C)(C)C)C(=O)O)n(C)c(=O)c3cc(CNS(C)(=O)=O)ccc23)cc1C` (centres unmarked) [Example 187, 2-(tert-butoxy)-2-(4-(3,4-dimethylphenyl)-2-methyl-7-(methylsulfonamidomethyl)-1-oxo-1,2-dihydroisoquinolin-3-yl)acetic acid], with 22900 nM; and `COc1ccc2c(-c3ccc4c(c3)CCCO4)c(C(OC(C)(C)C)C(=O)O)n(C)c(=O)c2c1` (centres unmarked) [Example 72, 2-(tert-butoxy)-2-[4-(3,4-dihydro-2H-1-benzopyran-6-yl)-7-methoxy-2-methyl-1-oxo-1,2-dihydroisoquinolin-3-yl]acetic acid], with 400 nM; and `Cc1ccc2c(-c3cc(F)c4c(c3C)CCCO4)c(C(OC(C)(C)C)C(=O)O)n(C)c(=O)c2c1` (centres unmarked) [Example 124, 2-(tert-butoxy)-2-[4-(8-fluoro-5-methyl-3,4-dihydro-2H-1-benzopyran-6-yl)-2,7-dimethyl-1-oxo-1,2-dihydroisoquinolin-3-yl]acetic acid], with 130 nM.
Then `Cc1ccc(-c2c(C(OC(C)(C)C)C(=O)O)n(C)c(=O)c3c(F)cccc23)cc1C` (centres unmarked) [Example 59, 2-(tert-butoxy)-2-[4-(3,4-dimethylphenyl)-8-fluoro-2-methyl-1-oxo-1,2-dihydroisoquinolin-3-yl]acetic acid], with 2180 nM; and `Cc1c(-c2c(C(OC(C)(C)C)C(=O)O)n(C)c(=O)c3ccccc23)ccc2c1CCCO2` (centres unmarked) [Example 19, 2-(tert-butoxy)-2-[2-methyl-4-(5-methyl-3,4-dihydro-2H-1-benzopyran-6-yl)-1-oxo-1,2-dihydroisoquinolin-3-yl]acetic acid], with 410 nM; and `Cn1c(C(OC(C)(C)C)C(=O)O)c(-c2ccc3c(c2)CCCO3)c2cc(F)ccc2c1=O` (centres unmarked) [Example 25, 2-(tert-butoxy)-2-[4-(3,4-dihydro-2H-1-benzopyran-6-yl)-6-fluoro-2-methyl-1-oxo-1,2-dihydroisoquinolin-3-yl]acetic acid], with 670 nM.
Then `Cc1c(-c2c([C@H](OC(C)(C)C)C(=O)O)n(C)c(=O)c3cc(-c4ccncc4)ccc23)cc(F)c2c1CCCO2` (atropisomer, axis not shown; (M)) [Example 205, (2S)(M)-[(1,1-dimethylethyl)oxy][4-(8-fluoro-5-methyl-3,4-dihydro-2H-chromen-6-yl)-2-methyl-1-oxo-7-(4-pyridinyl)-1,2-dihydro-3-isoquinolinyl]ethanoic acid], with 160 nM; and `Cn1c(C(OC(C)(C)C)C(=O)O)c(-c2cc(F)cc(F)c2)c2ccccc2c1=O` (centres unmarked) [Example 6, 2-(tert-butoxy)-2-[4-(3,5-difluorophenyl)-2-methyl-1-oxo-1,2-dihydroisoquinolin-3-yl]acetic acid], with 10600 nM.
With `Cn1c(C(OC(C)(C)C)C(=O)O)c(-c2ccc(F)cc2F)c2ccccc2c1=O` (centres unmarked) [Example 46, 2-(tert-butoxy)-2-[4-(2,4-difluorophenyl)-2-methyl-1-oxo-1,2-dihydroisoquinolin-3-yl]acetic acid], the IC50 was 1570 nM.
Then `CCn1c(C(OC(C)(C)C)C(=O)O)c(-c2ccc(C)c(C)c2)c2ccccc2c1=O` (centres unmarked) [Example 28, 2-(tert-butoxy)-2-[4-(3,4-dimethylphenyl)-2-ethyl-1-oxo-1,2-dihydroisoquinolin-3-yl]acetic acid], with 6130 nM.
